# Earlier results as cited in patent publication US20080171032A1, “DIETARY SUPPLEMENT COMPOSITION AND METHOD OF USE FOR THE TREATMENT AND PREVENTION OF OXIDATIVE STRESS” (priority 2007, published 2008).
# Key:
# scleroderma = conditions: about 12 grams daily
# dermatomyositis = conditions: two dermatomyositis patients, 15 to 20 grams daily
# [1] = tested on: serum lipid oxidation products; conditions: human, tocotrienol supplementation at 40 mg/day, versus placebo
# [2] = tested on: advanced glycation end-products (AGEs); conditions: 600 mg/day prior to blood draw
compound,measurement,setting,value
"Nc1ccc(C(=O)O)cc1 [PABA, 4-aminobenzoic acid]",solubility in water,,slight
"Nc1ccc(C(=O)[O-])cc1.[K+] [POTABA, potassium para-aminobenzoate]","patients with mild, moderate or marked skin softening",scleroderma; 224 scleroderma patients,Ninety
same,adverse events,scleroderma; scleroderma patients,no significant adverse events were reported
same,clinical improvement,dermatomyositis,Clinical improvement was noted
tocotrienol,lowering of serum lipid oxidation products,[1],more effective in lowering serum lipid oxidation products than placebo
CC1=C(/C=C/C(C)=C/C=C/C(C)=C/C=C/C=C(C)/C=C/C=C(C)/C=C/C2=C(C)C(=O)[C@@H](O)CC2(C)C)C(C)(C)C[C@H](O)C1=O [Astaxanthin],protection against oxygen-induced mitochondrial membrane damage,mitochondrial membranes,protection against oxygen-induced mitochondrial membrane damage
C/C(=C(\CCOP(=O)(O)O)SC(=O)c1ccccc1)N(C=O)Cc1cnc(C)nc1N [benfotiamine],AGE formation in the cells of test subjects,[2],significant decrease
same,glycoxidation in the cells of test subjects,[2],significant decrease
NCCC(=O)N[C@@H](Cc1cnc[nH]1)C(=O)O [carnosine],effect on cells approaching senescence,human fibroblasts; human fibroblasts approaching senescence supplemented with carnosine,markedly rejuvenated and their lifespan extended
same,onset of cell senescence,human fibroblasts; human fibroblasts exposed to 50 mM carnosine,reduction in onset of cell senescence
